Test results from patent publication US9085555B2, “Complement pathway modulators and uses thereof” (priority 2011, dated 2015).

Biological target: Factor D (Homo sapiens (Human), UniProt P00746)
Test: biochemical
Type: biochemical
Settings: read-out: IC50

Factor D, sequence (P00746 26-253): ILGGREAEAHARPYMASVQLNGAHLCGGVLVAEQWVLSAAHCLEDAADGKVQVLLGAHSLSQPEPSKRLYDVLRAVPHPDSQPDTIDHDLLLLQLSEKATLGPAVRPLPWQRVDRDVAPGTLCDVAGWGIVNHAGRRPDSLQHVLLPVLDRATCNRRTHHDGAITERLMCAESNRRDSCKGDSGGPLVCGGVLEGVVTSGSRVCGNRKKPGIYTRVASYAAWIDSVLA

**Q.** How did the IC50 turn out when `Cc1nccc2c(C(N)=O)nn(CC(=O)N3[C@@H]4C[C@@H]4C[C@H]3C(=O)Nc3cccc(OC(F)(F)F)c3F)c12` [Example 716, 1-{2-[(1R,3S,5R)-3-(2-Fluoro-3-trifluoromethoxy-phenylcarbamoyl)-2-aza-bicyclo[3.1.0]hex-2-yl]-2-oxo-ethyl}-7-methyl-1H-pyrazolo[3,4-c]pyridine-3-carboxylic acid amide] was run?
**A.** 46 nM

**Q.** With `NC(=O)n1cc(NC(=O)N2C[C@H](F)C[C@H]2C(=O)NCc2ccnc(C(F)(F)F)c2F)c2ccccc21` [Example 232, (2S,4R)-4-Fluoro-pyrrolidine-1,2-dicarboxylic acid 1-[(1-carbamoyl-1H-indol-3-yl)-amide] 2-[(3-fluoro-2-trifluoromethyl-pyridin-4-ylmethyl)-amide]] as the compound, how does the IC50 read?
**A.** 989 nM

**Q.** `NC(=O)n1cc(NC(=O)N2C[C@@H](N)C[C@H]2C(=O)NCc2ccccc2Cl)c2ccccc21` [Example 50, (2S,4S)-4-Amino-pyrrolidine-1,2-dicarboxylic acid 1-[(1-carbamoyl-1H-indol-3-yl)-amide] 2-(2-chloro-benzylamide)] was tested. Which IC50 did it give?
**A.** 21600 nM

**Q.** Which IC50 does the source give for `NC(=O)n1cc(NC(=O)N2C[C@@H](N)C[C@H]2C(=O)NCc2cc(Cl)ccc2F)c2ccccc21` [Example 55, (2S,4S)-4-Amino-pyrrolidine-1,2-dicarboxylic acid 1-[(1-carbamoyl-1H-indol-3-yl)-amide] 2-(5-chloro-2-fluoro-benzylamide)] here?
**A.** 125 nM

**Q.** How did the IC50 turn out when `C[C@@]12C[C@@H](C(=O)Nc3cccc(Br)n3)N(C(=O)Cn3nc(C(N)=O)c4ccccc43)[C@@H]1C2` [Example 744, 1-{2-[(1R,3S,5R)-3-(6-Bromo-pyridin-2-ylcarbamoyl)-5-methyl-2-aza-bicyclo[3.1.0]hex-2-yl]-2-oxo-ethyl}-1H-indazole-3-carboxylic acid amide] was run?
**A.** 4 nM

**Q.** How did the IC50 turn out when `COc1ccc2c(C(C)=O)cn(CC(=O)N3C[C@H](F)[C@@H](OC)[C@H]3C(=O)NCc3cccc(Cl)c3F)c2c1` [Example 487, (2S,3S,4S)-1-[2-(3-Acetyl-6-methoxy-indol-1-yl)-acetyl]-4-fluoro-3-methoxy-pyrrolidine-2-carboxylic acid 3-chloro-2-fluoro-benzylamide] was run?
**A.** 13 nM

**Q.** With `COc1cc(F)c(F)c(CNC(=O)[C@@H]2SCCN2C(=O)Nc2cn(C(N)=O)c3ccccc23)c1` [Example 235, (S)-Thiazolidine-2,3-dicarboxylic acid 3-[(1-carbamoyl-1H-indol-3-yl)-amide] 2-(2,3-difluoro-5-methoxy-benzylamide)] as the compound, how does the IC50 read?
**A.** 80 nM

**Q.** How did the IC50 turn out when `NC(=O)n1cc(NC(=O)N2C[C@@H](N)[C@H](O)[C@H]2C(=O)NCc2cccc(Cl)c2F)c2ccccc21` [Example 429, 2S,3S,4R)-4-Amino-3-hydroxy-pyrrolidine-1,2-dicarboxylic acid 1-[(1-carbamoyl-1H-indol-3-yl)-amide]2-(3-chloro-2-fluoro-benzylamide] was run?
**A.** 1040 nM

**Q.** With `CC(C)(C)n1nnnc1-c1cc(Br)cc(NC(=O)[C@@H]2C[C@H]3C[C@H]3N2C(=O)Nc2cn(C(N)=O)c3ccccc23)c1` [Example 345, (1R,3S,5R)-2-Aza-bicyclo[3.1.0]hexane-2,3-dicarboxylic acid 3-{[3-bromo-5-(1-tert-butyl-1H-tetrazol-5-yl)-phenyl]-amide}2-[(1-carbamoyl-1H-indol-3-yl)-amide]] as the compound, how does the IC50 read?
**A.** 800 nM

**Q.** `N#C[C@H]1C[C@@H](C(=O)Nc2cccc(OC(F)(F)F)c2)N(C(=O)Nc2cn(C(N)=O)c3ccccc23)C1` [Example 125, (2S,4S)-4-Cyano-pyrrolidine-1,2-dicarboxylic acid 1-[(1-carbamoyl-1H-indol-3-yl)-amide]2-[(3-trifluoromethoxy-phenyl)-amide]] was tested. Which IC50 did it give?
**A.** 5100 nM

**Q.** `NC(=O)n1cc(NC(=O)N2NCC[C@H]2C(=O)NCc2cccc(Cl)c2F)c2ccccc21` [Example 432] was tested. Which IC50 did it give?
**A.** 7 nM

**Q.** `CC(=O)c1cn(CC(=O)N2C[C@](C)(F)C[C@H]2C(=O)NCc2cccc(Cl)c2F)c2ccncc12` [Example 502, (2S,4R)-1-[2-(3-Acetyl-pyrrolo[3,2-c]pyridin-1-yl)-acetyl]-4-fluoro-4-methyl-pyrrolidine-2-carboxylic acid 3-chloro-2-fluoro-benzylamide] was tested. Which IC50 did it give?
**A.** 449 nM

**Q.** Which IC50 does the source give for `NC(=O)n1cc(NC(=O)N2C[C@@H](N)C[C@H]2C(=O)NC2(c3ccccc3)CC2)c2ccccc21` [Example 72, (2S,4S)-4-Amino-pyrrolidine-1,2-dicarboxylic acid 1-[(1-carbamoyl-1H-indol-3-yl)-amide] 2-[(1-phenyl-cyclopropyl)-amide]] here?
**A.** 7000 nM

**Q.** `COC(=O)c1ccc2c(C(C)=O)cn(CC(=O)N3[C@@H]4C[C@@H]4C[C@H]3C(=O)NCc3cccc(Cl)c3F)c2c1` [Example 526, 3-Acetyl-1-{2-[(1R,3S,5R)-3-(3-chloro-2-fluoro-benzylcarbamoyl)-2-aza-bicyclo[3.1.0]hex-2-yl]-2-oxo-ethyl}-1H-indole-6-carboxylic acid methyl ester] was tested. Which IC50 did it give?
**A.** 54 nM

**Q.** How did the IC50 turn out when `NC(=O)n1cc(NC(=O)N2CC[C@@H](N)[C@H]2C(=O)NCc2cccc(Cl)c2F)c2ccccc21` [Example 417, 2S,3R)-3-Amino-pyrrolidine-1,2-dicarboxylic acid 1-[(1-carbamoyl-1H-indol-3-yl)-amide]2-(3-chloro-2-fluoro-benzylamide] was run?
**A.** 40 nM

**Q.** `NC(=O)n1cc(NC(=O)N2C[C@H]3OC3[C@H]2C(=O)NCc2cccc(Cl)c2F)c2ccccc21` (stereo partly drawn) [Example 197, (1S,2S,5R)-6-Oxa-3-aza-bicyclo[3.1.0]hexane-2,3-dicarboxylic acid 3-[(1-carbamoyl-1H-indol-3-yl)-amide] 2-(3-chloro-2-fluoro-benzylamide)] was tested. Which IC50 did it give?
**A.** 100 nM

**Q.** For `NCc1ccc(-c2cccc(NC(=O)[C@@H]3CCCN3C(=O)Nc3cn(C(N)=O)c4ccccc34)c2)cc1` [Example 400, (S)-Pyrrolidine-1,2-dicarboxylic acid 2-[(4′-aminomethyl-biphenyl-3-yl)-amide]1-[(1-carbamoyl-1H-indol-3-yl)-amide]], which IC50 is on record?
**A.** 3950 nM

**Q.** With `CC(=O)c1nn(CC(=O)N2[C@@H]3C[C@@H]3C[C@H]2C(=O)Nc2cccc(OC(F)(F)F)c2F)c2cc(C(=O)O)ccc12` [Example 725] as the compound, how does the IC50 read?
**A.** 18 nM

**Q.** How did the IC50 turn out when `CO[C@H]1[C@@H](C(=O)NCc2cccc(Cl)c2F)N(C(=O)Cn2nc(C(C)=O)c3cnccc32)C[C@@H]1F` [Example 630, (2S,3S,4S)-1-[2-(3-Acetyl-pyrazolo[4,3-c]pyridin-1-yl)-acetyl]-4-fluoro-3-methoxy-pyrrolidine-2-carboxylic acid 3-chloro-2-fluoro-benzylamide] was run?
**A.** 36 nM

**Q.** How did the IC50 turn out when `NC(=O)c1nn(CC(=O)N2[C@@H]3C[C@@H]3C[C@H]2C(=O)NCc2cccc(Cl)c2F)c2cnc(C3CC3)cc12` [Example 700, 1-{2-[(1R,3S,5R)-3-(3-Chloro-2-fluoro-benzylcarbamoyl)-2-aza-bicyclo[3.1.0]hex-2-yl]-2-oxo-ethyl}-5-cyclopropyl-1H-pyrazolo[3,4-c]pyridine-3-carboxylic acid amide] was run?
**A.** 6 nM

**Q.** With `NC(=O)n1cc(NC(=O)N2[C@@H]3C[C@@H]3C[C@H]2C(=O)NCc2cccc(Cl)c2F)c2ccc(CCO)cc21` [Example 384, 1R,3S,5R)-2-Aza-bicyclo[3.1.0]hexane-2,3-dicarboxylic acid 2-{[1-carbamoyl-6-(2-hydroxy-ethyl)-1H-indol-3-yl]-amide}3-(3-chloro-2-fluoro-benzylamide] as the compound, how does the IC50 read?
**A.** 32 nM

**Q.** For `COC(=O)[C@H](COC(C)(C)C)NC(=O)[C@@H]1C[C@H](N)CN1C(=O)Nc1cn(C(N)=O)c2ccccc12` [Example 96, (S)-2-{[(2S,4S)-4-Amino-1-(1-carbamoyl-1H-indol-3-ylcarbamoyl)-pyrrolidine-2-carbonyl]-amino}-3-tert-butoxy-propionic acid methyl ester], which IC50 is on record?
**A.** 8050 nM

**Q.** Which IC50 does the source give for `CC(=O)c1cn(CC(=O)N2C[C@H](F)C[C@H]2C(=O)NCc2cccc(Cl)c2F)c2cc(C(=O)O)ccc12` [Example 597, 3-Acetyl-1-{2-[(2S,4R)-2-(3-chloro-2-fluoro-benzylcarbamoyl)-4-fluoro-pyrrolidin-1-yl]-2-oxo-ethyl}-1H-indole-6-carboxylic acid] here?
**A.** 14 nM

**Q.** For `COC(=O)Cc1ccc2c(C(C)=O)cn(CC(=O)N3C[C@H](F)C[C@H]3C(=O)NCc3cccc(Cl)c3F)c2c1` [Example 549, (3-Acetyl-1-{2-[(2S,4R)-2-(3-chloro-2-fluoro-benzylcarbamoyl)-4-fluoro-pyrrolidin-1-yl]-2-oxo-ethyl}-1H-indol-6-yl)-acetic acid methyl ester], which IC50 is on record?
**A.** 69 nM

**Q.** How did the IC50 turn out when `NC(=O)n1cc(NC(=O)N2CSC[C@H]2C(=O)Nc2cccc(OC(F)(F)F)c2)c2ccccc21` [Example 161, (R)-Thiazolidine-3,4-dicarboxylic acid 3-[(1-carbamoyl-1H-indol-3-yl)-amide] 4-[(3-trifluoromethoxy-phenyl)-amide]] was run?
**A.** 987 nM

**Q.** Which IC50 does the source give for `NC(=O)n1cc(NC(=O)N2C[C@@H](N)C[C@H]2C(=O)NCc2ccccc2F)c2ccccc21` [Example 49, (2S,4S)-4-Amino-pyrrolidine-1,2-dicarboxylic acid 1-[(1-carbamoyl-1H-indol-3-yl)-amide] 2-(2-fluoro-benzylamide)] here?
**A.** 900 nM

**Q.** `C=CCOc1ccc2c(NC(=O)N3C[C@H](F)C[C@H]3C(=O)NCc3cccc(Cl)c3F)cn(C(N)=O)c2c1` [Example 280, (2S,4R)-4-Fluoro-pyrrolidine-1,2-dicarboxylic acid 1-[(6-allyloxy-1-carbamoyl-1H-indol-3-yl)-amide] 2-(3-chloro-2-fluoro-benzylamide)] was tested. Which IC50 did it give?
**A.** 250 nM

**Q.** With `O=C(CO)c1cn(CC(=O)N2C[C@H](F)C[C@H]2C(=O)NCc2cccc(Br)c2F)c2ccccc12` [Example 564, (2S,4R)-4-Fluoro-1-{2-[3-(2-hydroxy-acetyl)-indol-1-yl]-acetyl}-pyrrolidine-2-carboxylic acid 3-bromo-2-fluoro-benzylamide] as the compound, how does the IC50 read?
**A.** 13 nM

**Q.** For `CO[C@H]1[C@@H](C(=O)N[C@H](C)c2cccc(Cl)c2F)N(C(=O)Cn2nc(C(N)=O)c3ccncc32)C[C@@H]1F` [Example 664, 1-(2-{(2S,3S,4S)-2-[(R)-1-(3-Chloro-2-fluoro-phenyl)-ethylcarbamoyl]-4-fluoro-3-methoxy-pyrrolidin-1-yl}-2-oxo-ethyl)-1H-pyrazolo[3,4-c]pyridine-3-carboxylic acid amide], which IC50 is on record?
**A.** 24 nM
